According to PubChem BioAssay (NCI):
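Where inhibition never reached the appropriate level, the endpoint shown equals the highest concentration tested. Otherwise, values were interpolated linearly from a five-concentration, 48-hour dose response in 96-well plates. GI50 is the concentration that inhibits growth by half. TGI: total growth inhibition.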

How the values were obtained:
Test in all cases: inhibition of tumour cell growth, NCI panel, 48 h
OVCAR-5 ovarian = system: OVCAR-5 ovarian
COLO 205 colon = system: COLO 205 colon
SF-268 CNS = system: SF-268 CNS
MOLT-4 leukemia = system: MOLT-4 leukemia
HCC-2998 colon = system: HCC-2998 colon
CCRF-CEM leukemia = system: CCRF-CEM leukemia
TK-10 renal = system: TK-10 renal
SN12C renal = system: SN12C renal
HOP-92 NSCLC = system: HOP-92 NSCLC
NCI/ADR-RES ovarian = system: NCI/ADR-RES ovarian
MDA-MB-435 = system: MDA-MB-435

SMILES | TGI (OVCAR-5 ovarian) [µM] | TGI (COLO 205 colon) [µM] | TGI (SF-268 CNS) [µM] | TGI (MOLT-4 leukemia) [µM] | TGI (HCC-2998 colon) [µM] | TGI (CCRF-CEM leukemia) [µM] | TGI (TK-10 renal) [µM] | TGI (SN12C renal) [µM] | TGI (HOP-92 NSCLC) [µM] | TGI (NCI/ADR-RES ovarian) [µM] | TGI (MDA-MB-435) [µM] | GI50 (OVCAR-5 ovarian) [µM] | GI50 (SF-268 CNS) [µM] | GI50 (HOP-92 NSCLC) [µM] | GI50 (TK-10 renal) [µM] | GI50 (MDA-MB-435) [µM]
C=C(/C=C/C=C(/CCC=C(C)C)COC(C)=O)[C@@H]1CC[C@]2([C@H](CCCO)/C(=C(/C)C=O)CC[C@]2(C)O)[C@@H]1O | 53.7 | 7.06 | 41.9 | 34.9 | 20.3 | 4.97 | 31.3 | 29.9 | – | – | – | – | – | – | – | –
Nc1nc(SCCC/C=C/B(O)O)nc2c1ncn2C1OC(CO)C(O)C1O (stereo unspecified) | > 243 | > 243 | > 243 | > 243 | > 243 | > 243 | > 243 | > 243 | > 243 | – | – | – | – | – | – | –
NC(Cc1ccc2oc3cc(=O)c4ccccc4c-3nc2c1)C(=O)O (stereo unspecified) | > 87.6 | 21.5 | > 100 | > 88.3 | 40.2 | 71.1 | > 97.2 | 39.5 | > 100 | > 100 | 12.2 | – | – | – | – | –
Cc1nnc2sc(-c3ccc(N)cc3)nn12 | > 100 | > 100 | > 100 | > 100 | > 100 | > 100 | > 100 | > 100 | > 100 | > 100 | > 100 | – | – | – | – | –
CCOC(=O)C1=C(C)N(Cc2ccc(Cl)cc2Cl)C2(O)C(OC)CC(=O)C3C(=O)N(c4ccccc4)C(=O)C132 (stereo unspecified) | 28.5 | 13.4 | 14.3 | 7.82 | 5.29 | 4.11 | 22.8 | 9.9 | 7.95 | 7.63 | 11.8 | – | – | – | – | –
CN[C@@H]1[C@H](O)[C@H](NC)[C@H]2O[C@@]3(O)C(=O)C[C@@H](C)O[C@H]3O[C@@H]2[C@H]1O | > 100 | > 100 | > 100 | > 100 | > 100 | > 100 | – | > 100 | > 100 | > 100 | > 100 | – | – | – | – | –
O=S(=O)(O)c1cc(O)c2c(O)c(N=Nc3ccc(/C=C/c4ccc(N=Nc5c(S(=O)(=O)O)cc6cc(S(=O)(=O)O)cc(O)c6c5O)cc4S(=O)(=O)O)c(S(=O)(=O)O)c3)c(S(=O)(=O)O)cc2c1 | > 100 | > 100 | > 100 | > 100 | > 100 | > 100 | > 100 | > 100 | > 100 | – | – | – | – | – | – | –
CC(=O)O[C@H]1CC[C@]2(C)[C@H]3C(=O)C=C4[C@@H]5C[C@](C)(C(=O)N6CCCNCC6)CC[C@]5(C)CC[C@@]4(C)[C@]3(C)CC[C@H]2C1(C)C | 2.96 | – | 3.58 | – | – | – | 3.45 | – | 2.41 | – | 2.97 | 1.6 | 1.8 | 1.08 | 1.77 | 1.59
N=C(N)SC1c2ccccc2-c2cc([N+](=O)[O-])ccc21 (stereo unspecified) | 26.7 | 9.77 | 14.3 | 17.5 | 9.84 | 20.3 | 21.3 | 26.6 | 33.5 | 16 | 4.26 | – | – | – | – | –
CCOC(=O)C1=C(C)N2CCCOC2(C)C(C(=O)OC)C1c1cccc([N+](=O)[O-])c1 (stereo unspecified) | – | > 100 | > 100 | > 100 | > 100 | > 100 | > 100 | – | > 100 | – | – | – | – | – | – | –
CC1(C)[C@@H]2C[C@H]1C(Cc1ccccc1C[C@H]1c3cc(-c4ccccn4)ncc3[C@H]3C[C@@H]1C3(C)C)c1cc(-c3ccccn3)ncc12 (stereo partly specified) | > 100 | > 100 | > 36.2 | 1.23 | 39.8 | 0.899 | > 78.7 | > 100 | – | > 36.7 | > 42.2 | – | – | – | – | –
O=[N+]([O-])/C=C/c1cccc(F)c1 | – | 8.02 | 29.4 | – | 31.6 | 5.5 | 14.3 | 38.9 | 27.6 | 35.2 | 13.2 | – | – | – | – | –
